Source: US12691101B2, “Compound and method for preventing or treating of respiratory diseases comprising the same as an active ingredient” (YONSEI UNIVERSITY, UNIVERSITY - INDUSTRY FOUNDATION (UIF), priority 2019, dated 2026)

Target: T1, human wild-type (WT)-pendrin (Homo sapiens, UniProt O43511)
T1 construct: expressed in transfected cells
T1 sequence (O43511 1-780): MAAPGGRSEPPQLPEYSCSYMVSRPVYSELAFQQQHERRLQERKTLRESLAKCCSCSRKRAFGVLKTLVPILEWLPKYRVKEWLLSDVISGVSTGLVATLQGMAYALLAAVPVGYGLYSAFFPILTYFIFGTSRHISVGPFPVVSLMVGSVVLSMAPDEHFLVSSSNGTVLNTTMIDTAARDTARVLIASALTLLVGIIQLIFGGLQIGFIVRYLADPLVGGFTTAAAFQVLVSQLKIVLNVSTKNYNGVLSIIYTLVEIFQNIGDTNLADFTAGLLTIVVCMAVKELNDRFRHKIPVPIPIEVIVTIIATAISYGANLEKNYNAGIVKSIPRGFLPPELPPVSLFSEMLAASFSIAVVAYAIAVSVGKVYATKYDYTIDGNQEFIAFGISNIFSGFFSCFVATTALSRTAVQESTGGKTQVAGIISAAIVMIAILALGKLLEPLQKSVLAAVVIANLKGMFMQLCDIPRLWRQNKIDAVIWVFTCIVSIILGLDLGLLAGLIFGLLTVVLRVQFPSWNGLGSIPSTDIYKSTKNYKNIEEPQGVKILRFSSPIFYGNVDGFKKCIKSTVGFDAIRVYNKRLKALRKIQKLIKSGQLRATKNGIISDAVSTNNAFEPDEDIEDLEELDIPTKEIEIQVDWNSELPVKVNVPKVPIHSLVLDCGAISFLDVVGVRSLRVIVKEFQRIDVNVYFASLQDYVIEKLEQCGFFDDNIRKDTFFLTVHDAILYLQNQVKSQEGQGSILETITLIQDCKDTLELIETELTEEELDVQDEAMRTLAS
Test: Pendrin-mediated Cl^−/I^− exchange activity, YFP fluorescence in CHO-K1 cells
Format: cell-based
Settings: for inhibition at 30 µM: CHO-K1, 30 μM, read-out: Pendrin inhibitory activity at 30 μM (%); for IC50: compounds showing pendrin inhibitory activity of 50% or more at 30 μM, read-out: IC50
Procedure: Chinese hamster ovary (CHO)-K1 cells were maintained in a DMEM medium containing 10% fetal bovine serum (FBS), 100 units/ml penicillin and 100 100 μg/ml streptomycin. CHO-K1 cells were stably transfected with pcDNA3.1 encoding halide sensor YFP-H148Q/I152L/F46L and human wild-type (WT)-pendrin. For distribution of primary culture of human nasal cavity epithelium (HNE) cells, passage-2 cells were seeded into transwell-transparent culture inserts with a pore size of 0.45 μm (Costar Co., Cambridge, MA) at a density of 2×10^5 cells/cm^2. The cells were maintained in a 1:1 mixture of Dulbecco's modified Eagle's medium (Lonza, Walkersville, MD) and bronchial epithelial growth medium (Lonza) supplemented with the following growth factors according to the manufacturer's instructions. After immersing the cells for the first 7 days, they were exposed to the apical air interface for the remainder of the culture period. After establishment of the air-liquid interface, the cells were used between 14 and 21 days. At all stages of culture, the cells were maintained at 37° C. under 5% CO2 in an air incubator.
CHO-K1 cells expressing human WT pendrin and YFP-F46L/H148Q/I152L were plated on a 96-well microplate at a density of 2×10^4 cells per well and cultured for 48 hours. Each well of the cell cultured 96-well plate was washed with PBS of 200 μL twice and was filled with HEPES buffer solution of 50 μL, respectively. […] After culturing at 37° C. for 10 minutes, the 96-well plate was positioned on FLUOstar Omega microplate reader (BMG Labtech, Ortenberg, Germany) for fluorescence analysis. By continuously (400 ms per point) recording fluorescence for 1 second (base line), each well was individually analyzed for pendrin-mediated I^− inflow, and then at 1 second, 50 μL of NaI-substituted HEPES buffer solution (NaI replacing NaCl) was added using a liquid injector and the YFP fluorescence was recorded for 5 seconds. The initial iodide inflow rate was determined from the initial slope of fluorescence by nonlinear regression, after injection the iodide (See FIG. 1).
For measurement of Cl^−/I^− exchange activity, YFP fluorescence was measured in pendrin and halide sensor YFP expressing CHO-K1 cells. Each well of the cell cultured 96-well plate was washed with PBS of 200 μL twice, and was filled with HEPES buffer solution (140 mM NaCl, 5 mM KCl, 1 mM MgCl2, 1 mM CaCl2, 10 mM glucose and 10 mM HEPES (pH 7.4)), respectively. […] After culturing at 37° C. for 10 minutes, the 96-well plate was positioned on FLUOstar Omega microplate reader (BMG Labtech, Ortenberg, Germany) for fluorescence analysis.
By continuously (400 ms per point) recording fluorescence for 1 second (base line), each well was individually analyzed for pendrin-mediated I^− inflow, and then at 1 second, 50 μL of NaI-substituted HEPES buffer solution (140 mM NaI, 5 mM KCl, 1 mM MgCl2, 1 mM CaCl2, 10 mM glucose and 10 mM HEPES (pH 7.4)) was added using a liquid injector and the YFP fluorescence was recorded for 5 seconds. The initial iodide inflow rate was determined from the initial slope of fluorescence by nonlinear regression, after injection the iodide.

Compound	inhibition at 30 µM [%]	IC50 [µM]
CN(C)S(=O)(=O)c1cccc(C2=NC(=Cc3cccs3)C(=O)O2)c1 [F116, N,N-dimethyl-3-(5-oxo-4-(thiophen-2-ylmethylene)-4,5-dihydrooxazol-2-yl) benzenesulfonamide]	2.6	–
O=C(O)C(=Cc1ccsc1)NC(=O)c1ccc2ccccc2c1 [G24, 2-(2-Naphthamido)-3-(thiophen-3-yl)acrylate]	1.9	–
O=C1OC(c2ccccc2I)=NC1=Cc1ccc(-n2cncn2)cc1 [F132, 4-(4-(1H-1,2,4-thiazol-1-yl)benzylidene)-2-(2-iodophenyl)oxazol-5(4H)-one]	3.9	–
COc1ccc(C2=NC(=C3C=C(c4cccs4)Oc4ccccc43)C(=O)O2)cc1 [F75, 2-(4-Methoxyphenyl)-4-(2-(thiophen-2-yl)-4H-chromen-4-ylidene)oxazol-5 (4H)-one]	2.3	–
CC(C)c1ccc(C2=NC(=Cc3ccco3)C(=O)O2)cc1 [F49, 4-(Furan-2-ylmethylene)-2-(4-isopropylphenyl)oxazol-5 (4H)-one]	89.1	3.9 ± 0.36
CC(C)(C)c1ccc(C2=NC(=Cc3cc4ccccc4[nH]3)C(=O)O2)cc1 [F140, 4-((1H-indol-2-yl)methylene)-2-(4-(tert-butyl)phenyl)oxazol-5(4H)-one]	3.3	–
CCOc1cc(C=C2N=C(c3ccc(NC(C)=O)cc3)OC2=O)ccc1OC(=O)c1cccs1 [F69, 4-((2-(4-Acetamidophenyl)-5-oxooxazol-4(5H)-ylidene)methyl)-2-ethoxyphenylthiophene-2-carboxylate]	3.8	–
O=C1OC(c2ccc([N+](=O)[O-])cc2Cl)=NC1=Cc1cccs1 [F93, 2-(2-Chloro-4-nitrophenyl)-4-(thiophen-2-ylmethylene)oxazol-5(4H)-one]	2.5	–
O=C(O)C(=Cc1cccs1)NC(=O)c1ccc2c(c1)CCC2 [G38, 2-(2,3-Dihydro-1H-indene-5-carboxamido)-3-(thiophen-2-yl)acrylate]	2.5	–
Cc1ccc(C=C2N=C(c3cccs3)OC2=O)s1 [F115, 4-((5-Methylthiophen-2-yl)methylene)-2-(thiophen-2-yl)oxazol-5(4H)-one]	2.8	–
CC(C)(C)c1ccc(C2=NC(=Cc3cccn3-c3ccccc3)C(=O)O2)cc1 [F27, 2-(4-(tert-butyl)phenyl)-4-((1-phenyl-1H-pyrrol-2-yl)methylene)oxazol-5 (4H)-one]	2.8	–
O=C1OC(c2ccc(C(F)(F)F)cc2)=NC1=Cc1cccs1 [F1, 4-(thiophen-2-ylmethylene)-2-(4-(trifluoromethyl)phenyl)oxazol-5 (4H)-one]	2.6	–
CCCCc1ccc(C(=O)NC(=Cc2cccs2)C(=O)O)cc1 [G12, 2-(4-Butylbenzamido)-3-(thiophen-2-yl)acrylate]	48.1	–
CC(C)(C)c1ccc(C2=NC(=Cc3cnn(-c4ccccc4)c3)C(=O)O2)cc1 [F124, 2-(4-(tert-butyl)phenyl)-4-((1-phenyl-1H-pyrazol-4-yl)methylene)oxazol-5 (4H)-one]	2	–
O=C1OC(c2ccc3c(c2)CCC3)=NC1=Cc1cccs1 [F29, 2-(2,3-dihydro-1H-indene-5-yl)-4-(thiophen-2-ylmethylene)oxazol-5 (4H)-one]	3.3	–
O=C(O)C(=Cc1ccco1)NC(=O)c1ccc(C(F)(F)F)cc1 [G18, 3-(Furan-2-yl)-2-(4-(trifluoromethyl)benzamido)acrylate]	2.7	–
CC(C)Oc1ccc(C2=NC(=Cc3cnn(Cc4ccccc4)c3)C(=O)O2)cc1 [F130, 4-((1-Benzyl-1H-pyrazol-4-yl)methylene)-2-(4-isopropoxyphenyl)oxazol-5 (4H)-one]	2.7	–
CCCCOc1ccc(C(=O)NC(=Cc2ccc[nH]2)C(=O)O)cc1 [G41, 2-(4-Butoxybenzamido)-3-(1H-pyrrol-2-yl)acrylate]	25.1	–

The next lines start with the values.

inhibition at 30 µM [%]	IC50 [µM]	Compound
2.4	–	O=C1OC(c2ccc3ccccc3c2)=NC1=Cc1cnn(Cc2ccccc2Cl)c1 [F123, 4-((1-(2-Chlorobenzyl)-1H-pyrazol-4-yl)methylene)-2-(naphthalen-2-yl)oxazol-5 (4H)-one]
97.9	8.2 ± 0.79	CCCCCCc1ccc(C(=O)NC(=Cc2cccs2)C(=O)O)cc1 [G37, 2-(4-Hexylbenzamido)-3-(thiophen-2-yl)acrylate]
6.9	–	Cc1cc(C)cc(C2=NC(=Cc3cccs3)C(=O)O2)c1 [F150, 2-(3,5-Dimethylphenyl)-4-(thiophen-2-ylmethylene)oxazol-5(4H)-one]
58.8	25.8 ± 2.16	Cn1cc(C=C2N=C(c3ccc(C(C)(C)C)cc3)OC2=O)cn1 [F39, 2-(4-(tert-butyl)phenyl)-4-((1-methyl-1H-pyrazol-4-yl)methylene)oxazol-5(4H)-one]
2.2	–	O=C1OC(c2ccccc2)=NC1=Cc1cccs1 [F61, 2-Phenyl-4-(thiophen-2-ylmethylene)oxazol-5(4H)-one]
3.6	–	Cc1ncsc1C=C1N=C(c2ccc(-c3ccccc3)cc2)OC1=O [F24, 2-([1,1′-biphenyl]-4-yl)-4-((4-methylthiazol-5-yl)methylene)oxazol-5 (4H)-one]
4.6	–	O=C1OC(c2ccc(Br)cc2)=NC1=Cc1cccs1 [F45, 2-(4-Bromophenyl)-4-(thiophen-2-ylmethylene)oxazol-5 (4H)-one]
2.4	–	O=C1OC(c2ccc(C(F)(F)F)cc2)=NC1=Cc1ccco1 [F48, 4-(Furan-2-ylmethylene)-2-(4-(trifluoromethyl)phenyl)oxazol-5(4H)-one]
92.6	3.5 ± 0.27	CC(C)(C)c1ccc(C2=NC(=Cc3ccco3)C(=O)O2)cc1 [F38, 2-(4-(tert-butyl)phenyl)-4-(furan-2-ylmethylene)oxazol-5 (4H)-one]
4.1	–	O=C1OC(c2ccc3ccccc3c2)=NC1=Cc1cccs1 [F52, 2-(Naphthalen-2-yl)-4-(thiophen-2-ylmethylene)oxazol-5(4H)-one]
5.4	–	CC(C)(C)c1ccc(C(=O)NC(=Cc2cc3ccccc3[nH]2)C(=O)O)cc1 [G33, 2-(4-(tert-butyl)benzamido)-3-(1H-indol-2-yl)acrylate]
33.1	–	CC(C)Cc1ccc(C2=NC(=Cc3cccs3)C(=O)O2)cc1 [F14, 2-(4-Isobutylphenyl)-4-(thiophen-2-ylmethylene)oxazol-5 (4H)-one]
1.6	–	Cc1ccc(C2=NC(=Cc3cccs3)C(=O)O2)cc1I [F63, 2-(3-Iodo-4-methylphenyl)-4-(thiophen-2-ylmethylene)oxazol-5(4H)-one]
3.8	–	O=C1OC(Cc2ccc(-c3ccccc3)cc2)=NC1=Cc1ccc[nH]1 [F25, 4-((1H-pyrrol-2-yl)methylene)-2-([1,1′-biphenyl]-4-ylmethyl)oxazol-5(4H)-one]
